Reference: patent US6462086B1, “Non-malignant disease treatment with Ras antagonists” (Ramot University Authority for Applied Research and …, priority 1999, dated 2002)
“Also recorded” adds a separate entry of the source.

Key:
Ras = test: Amount of Ras in spleen lymphocytes of FTS-treated SJL mice (Western immunoblot, pan-Ras Ab); type: in vivo, mouse; details: FTS 5 mg/kg/day, 48 h following treatment, densitometry
Experimental: Naive SJL mice received either the vehicle or FTS (10 mg/Kg, i.p., twice a day) for 2 days. The total amounts of Ras were then determined in cell lysates prepared as detailed in (14). Briefly, spleen lymphocytes of the control and of the FTS-treated mice were homogenized in homogenization buffer as detailed previously (14-15). Total cellular protein (50 μg) corresponding to 1.2×10^6 cells, as separated by 12.5% sodium dodecylsulfate polyacrylamide gel electrophoresis (SDS-PAGE) and blotted onto nitrocellulose membranes. hmmunoblotting with pan-Ras Ab (pan-Ras Ab-3, Calbiochem), enhanced chemiluminescense assays (ECL) and densitometric analysis were then performed as detailed previously (14-15). Lymphocytes of vehicle- and of FTS-treated (5 mg/kg/day) SJL mice were obtained from the spleens of mice, 48 h following treatment. The cells where then homogenized and the total amount of Ras was determined by Western immunobloting with pan Ras antibody (14). The apparent amount of Ras in the lymphocytes of the FTS-treated mice was lower than that of the control lymphocytes.

[1] = test system: acute experimental autoimmune encephalomyelitis (EAE) in SJL/J mice; test: Acute EAE in SJL/J mice, clinical signs; type: in vivo, mouse; details: compared to controls
Experimental: Induction of acute EAE was based on a modification of Bernard's protocol (13). Briefly, equal volumes of MSCH (10 mg/ml in PBS) and complete Freud's adjuvant (CFA) enriched with Mycobacterium tuberculosis H37Ra (6 mg/ml) (Difco Laboratories, Detroit, Mich.) were homogenized in a blender. For each mouse, 0.1 ml (0.5 mg) of the emulsion were injected s.c. into the four footpads. Immediately thereafter and 2 days later, mice were injected i.v. with Bordetella pertussis (2.7×10^9 organisms per mouse) (Rafa Laboratories, Jerusalem, Israel). Animals were examined daily for signs of disease. The first clinical signs appeared on day 10-12 post immunization and were scored according to the following six point scale: 0: no abnormality; 1: mild tail weakness (floppy tail); 2: tail paralysis; 3: tail paralysis and hind leg paresis; 4: hind leg paralysis or mild forelimb weakness; 5: quadriplegia or moribund state; 6: death.
FTS (as powder) was diluted in chloroform (35.8 mg/ml of FTS=0.1 M) and kept in aliquods. The content (25 μl) of one aliquod was evaporated under nitrogen and then disolved in 6 μl absolute ethanol and 7 μl of 1N NaOH; 890 μl of PBS were subsequently added. Each mouse received 0.1 ml of this solution daily (0.1 mg/mouse or 5 mg/kg) intraperitoneally (i.p.).

MRL/lpr mice = test: Serum autoantibodies by ELISA in MRL/lpr and MRL/++ mice; type: in vivo, mouse; details: 16 weeks of age
Experimental: FTS was synthesized as previously described (13). FTS was stored in chloroform, which was evaporated under a stream of nitrogen immediately before use. The powder was dissolved in absolute ethanol and diluted to the desired concentration in sterile saline made basic with NaOH. 200 μl of carrier solution containing 100 μg of FTS (5 mg/kg) were injected intraperitoneally (i.p.) into each mouse. Control solution was prepared at the same time starting with a chloroform solution.
Mice were treated once a day, 3-5 times a week starting from 6 or 10 weeks of age until 18 weeks of age.
The mice were bled at 16 weeks of age by retro-orbital sinus puncture and the sera were separated by centrifugation and stored at −70° C. until assayed. The sera were tested by ELISA for the presence of different autoantibodies as previously described (15, 16). This included serum dependent (β2-GPI dependent) and independent antibodies to cardiolipin (aCL) and antibodies to single and double stranded DNA (anti-ssDNA, anti-dsDNA).

Wistar rats = type: in vivo
Experimental: The FTS was dissolved in PBS and administered i.p. 3 times a week to rats according to their assigned groups. Four groups containing 6 rats each were treated as follows. One group received TAA 200 mg/kg i.p. twice a week and i.p. injections of PBS 3 days a week for 12 weeks (cirrhotic controls for the FTS-treated groups). A second group received TAA for 12 weeks and FTS 5 mg/kg, 3 times a week. […] The two control groups consisted of one that received PBS injections without TAA for 12 weeks (normal controls) and a group of 5 rats that received only FTS 5 mg/kg i.p. for 12 weeks to monitor the appearance of adverse effects.
In order to monitor the presence of adverse effects caused by the prolonged administration of FTS, a control group received the Ras antagonist for 12 weeks.

human HSC = test: PDGF-induced migration of human hepatic stellate cells (modified Boyden chamber); type: cell-based; details: PDGF-BB 10 ng/ml, 24 h FTS, read-out: FTS concentration inhibiting (50%) the PDGF-stimulated cell migration
Experimental: Human HSCs were isolated from wedge sections of normal human liver unsuitable for transplantation as previously reported (6, 7). Briefly, after a combined digestion with collagenase/pronase, HSCs were separated from other liver nonparenchymal cells by ultracentrifugation over gradients of stractan (Cellsep™ isotonic solution, Larex Inc., St. Paul, Minn.). Extensive characterization was performed as described in (7). Cells were cultured on plastic culture dishes (Falcon, Becton Dickinson, Lincoln Park, N.J.) in Iscove's modified Dulbecco's medium supplemented with 0.6 U/ml insulin, 2.0 mmol/L glutamine, 0.1 mmol/L nonessential amino acids, 1.0 mmol/L sodium pyruvate, antibiotic antifungal solution (all provided by Gibco Laboratories, Grand Island, N.Y.) and 20% fetal bovine serum (Imperial Laboratories, Andover, U.K.). Experiments described in this study were performed on cells between third and fifth serial passages (1:3 split ratio) using three independent cell lines.
Cell migration was carried out as previously described (9, 10). […] After fixing in 96% methanol and staining with Harris' hematoxylin solution, cells that migrated to the underside of the filters were quantitated as the mean number of cells in 10 high-power fields (HPF). […] Possible cytotoxic effects were monitored by the trypan blue exclusion test.

Structure (SMILES): CC(C)=CCC/C(C)=C/CC/C(C)=C/CSc1ccccc1C(=O)O [FTS, farnesyl thiosalicylic acid]
- reduction in the amount of Ras in lymphocytes (Ras): 36±7%
- clinical course of EAE (FIG. 1) [1]: significantly ameliorated
- levels of anti-dsDNA antibodies (MRL/lpr mice): did lower the levels; also recorded: significant decrease
- levels of anti-ssDNA antibodies (MRL/lpr mice): did not affect the levels
- levels of non-serum dependent aCL antibodies (MRL/lpr mice): did not affect the levels
- levels of β2-GPI dependent aCL antibodies (MRL/lpr mice): did lower the levels; also recorded: significant decrease
- mortality and adverse effects (Wistar rats; FTS 5 mg/kg alone for 12 weeks): no mortality or major adverse effects
- survival after 12 weeks (Wistar rats; TAA+FTS, n=6): none of the rats died
- IC50 (human HSC): 2000 to 2500 nM
